{"source": "patent US20070059378A1", "about": "“Medical composition for balancing bodily processes” (Metagenics, Inc., priority 2001, published 2007)", "tested_on": "subjects with PMS symptoms", "assay": "Clinical study on PMS symptoms: Shortened Premenstrual Assessment Form (SPAF)", "format": "in vivo, women", "settings": "medical food/I3C group vs medical food/placebo group", "method": "The clinical trial was performed at the Functional Medicine Research Center, Gig Harbor, Wash. […] Exclusion criteria for the study included: evidence of untreated endocrine, neurological, or infectious disorder; pregnancy or lactation; history of diabetes, mental illness or attempted suicide, or liver, kidney or heart disease; use of oral corticosteroids within four weeks prior to the screening; use of anti-arrhythmic or other cardiac medications.\nThe study was a […], 2-armed trial with stratification based on the use of birth control medication. Primary endpoints were monitored at the Screening Visit, Visit 1, Visit 2, and Visit 3. […]\nTwo research-validated, PMS-specific questionnaires were chosen for monitoring PMS symptoms: the Shortened Premenstrual Assessment Form (SPAF) and the Menstrual Distress Questionnaire (MDQ). […] The MDQ data is transformed to provide a normalized score for which a population mean of 50 and a standard deviation of 10 have been determined as reference values. […]\nBaseline data (the level of symptoms experienced in the preceding 2 menstrual cycles) were obtained from averaging the Screening Visit and Visit 1 values, and served as a control for non-intervention variability. Laboratory and questionnaire data were analyzed by a one-way analysis of variance (ANOVA) using JMP Statistical Package (SAS Institute, Cary, N.C.). […]"}
{"smiles": "OCc1c[nH]c2ccccc12", "note": "[Example I3C, indole-3-carbinol]", "values": [{"measurement": "additional effect of I3C on PMS symptoms (questionnaire data) over medical food/placebo", "value": "no difference"}, {"measurement": "additional effect of I3C on PMS symptoms (questionnaire data) over medical food/placebo", "setting": "listed as 13C", "value": "no additional effect"}]}
